Results on 13 molecules are retold here after PMC10720285 (ACS Omega, 2023).

Holding throughout (format): cell-based
The subject of experiment [1] is HepG2. As to the kind of experiment: MTT antiproliferative assay, HepG2. The following applies: Homo sapiens, HepG2, 72 h, read-out: IC50 values HepG2.
The subject of experiment [2] is A549. Nature of the experiment: MTT antiproliferative assay, A549. The following applies: Homo sapiens, A549, 72 h, read-out: IC50 values A549. A general note: Tetrazolium assays rely on reduction of a dye to a coloured formazan, in cell work by metabolically active cells.
Experiment [3] deals with MCF7. As to the kind of experiment: MTT antiproliferative assay, MCF7. The following applies: Homo sapiens, MCF7, 72 h, read-out: IC50 values MCF7.
In experiment [4] the test system is MCF-10A. Nature of the experiment: MTT cytotoxicity assay, noncancerous MCF-10A. The note with it: Homo sapiens, 72 h, read-out: IC50 values MCF-10A.

For the molecule `N#CC1=C(N)OC2=C(C(=O)CCC2)C1c1cccs1` (centres unmarked) [Compound 1, 2-Amino-5-oxo-4-(thiophen-2-yl)-5,6,7,8-tetrahydro-4H-chromene-3-carbonitrile], the concentration for half-maximal inhibition (IC50) (usually the concentration that gives 50% inhibition) was 33.9 ± 3.34 µM in experiment [1], 36.3 ± 3.37 µM in experiment [2] and 39.8 ± 3.35 µM in experiment [3].
In the case of `CCO/C=N/C1=C(C#N)C(c2cccs2)C2=C(CCCC2=O)O1` (centres unmarked) [Compound 2, Ethyl (E)-N-(3-Cyano-5-oxo-4-(thiophen-2-yl)-5,6,7,8-tetrahydro-4H-chromen-2-yl)formimidate], the concentration for half-maximal inhibition (IC50) turned out to be 27.3 ± 3.87 µM in experiment [1], 29.9 ± 3.05 µM in experiment [2] and 29.4 ± 2.35 µM in experiment [3].
For the molecule `N=c1c2c(ncn1N)OC1=C(C(=O)CCC1)C2c1cccs1` (centres unmarked) [Compound 3, 3-Amino-4-imino-5-(thiophen-2-yl)-3,4,5,7,8,9-hexahydro-6H-chromeno[2,3-d]pyrimidin-6-one], the IC50 in experiment [1] was determined as 2.02 ± 0.15 µM; in experiment [2], 1.87 ± 0.32 µM; in experiment [4] it was 77.3 ± 3.22 µM; in experiment [3], 1.61 ± 0.12 µM.
Taken in the same sequence, the figures for `Nc1nc(=O)[nH]c2c1C(c1cccs1)C1=C(CCCC1=O)O2` (centres unmarked) [Compound 4a, 4-Amino-5-(thiophen-2-yl)-5,7,8,9-tetrahydro-2H-chromeno[2,3-d]pyrimidine-2,6(1H)-dione] were 13.7 ± 3.81 µM, 14.9 ± 3.12 µM, 60.1 ± 2.31 µM and 14.3 ± 2.05 µM.
Taken in the same sequence, the figures for `Nc1nc(=S)[nH]c2c1C(c1cccs1)C1=C(CCCC1=O)O2` (centres unmarked) [Compound 4b, 4-Amino-5-(thiophen-2-yl)-2-thioxo-1,2,5,7,8,9-hexahydro-6H-chromeno[2,3-d]pyrimidin-6-one] were 17.8 ± 2.04 µM, 17.1 ± 3.17 µM, 58.1 ± 2.34 µM and 18.8 ± 3.19 µM.
Taken in the same sequence, the figures for `Nc1c2c(nc(=S)n1-c1ccccc1)OC1=C(C(=O)CCC1)C2c1cccs1` (centres unmarked) [Compound 7, 4-Amino-3-phenyl-5-(thiophen-2-yl)-2-thioxo-2,3,5,7,8,9-hexahydro-6H-chromeno[2,3-d]pyrimidin-6-one] were 6.26 ± 0.32 µM, 7.28 ± 1.34 µM, 78.5 ± 2.05 µM and 5.6 ± 1.12 µM.
As for `N#CCc1nc(N)c2c(n1)OC1=C(C(=O)CCC1)C2c1cccs1` (centres unmarked) [Compound 11, 2-(4-Amino-6-oxo-5-(thiophen-2-yl)-6,7,8,9-tetrahydro-5H-chromeno[2,3-d]pyrimidin-2-yl)acetonitrile], the IC50 is 50.5 ± 3.16 µM in experiment [1], 50.7 ± 3.23 µM in experiment [2] and 60.1 ± 3.45 µM in experiment [3].
As for `NC(=S)Cc1nc(N)c2c(n1)OC1=C(C(=O)CCC1)C2c1cccs1` (centres unmarked) [Compound 13, 2-(4-Amino-6-oxo-5-(thiophen-2-yl)-6,7,8,9-tetrahydro-5H-chromeno[2,3-d]pyrimidin-2-yl)ethanethioamide], the concentration for half-maximal inhibition (IC50) amounted to 19.3 ± 2.07 µM in experiment [1], 19.2 ± 3.88 µM in experiment [2], 51.6 ± 1.98 µM in experiment [4] and 18.1 ± 2.05 µM in experiment [3].
Take `CCOC(=O)NC1=C(C#N)C(c2cccs2)C2=C(CCCC2=O)O1` (centres unmarked) [Compound 14, Ethyl (3-Cyano-5-oxo-4-(thiophen-2-yl)-5,6,7,8-tetrahydro-4H-chromen-2-yl)carbamate]: the concentration for half-maximal inhibition (IC50) in experiment [1] amounted to 37.2 ± 1.45 µM; in experiment [2] it was 40.4 ± 3.15 µM; in experiment [3], 39.3 ± 3.12 µM.
As to `O=C1CCCC2=C1C(c1cccs1)C1=C(NC(=O)N3CCN=C13)O2` (centres unmarked) [Compound 15, 12-(Thiophen-2-yl)-2,6,8,9,10,12-hexahydro-5H-chromeno[3,2-e]imidazo[1,2-c]pyrimidine-5,11(3H)-dione], the half-maximal inhibitory concentration (IC50) in experiment [1] turned out to be 19.3 ± 2.06 µM; in experiment [2], 19 ± 3.45 µM; in experiment [4], 52.3 ± 2.18 µM; in experiment [3] it was 19.3 ± 3.37 µM.
In the case of `CC(=O)N(C(C)=O)C1=C(C#N)C(c2cccs2)C2=C(CCCC2=O)O1` (centres unmarked) [Compound 17, N-Acetyl-N-(3-cyano-5-oxo-4-(thiophen-2-yl)-5,6,7,8-tetrahydro-4H-chromen-2-yl)acetamide], the concentration for half-maximal inhibition (IC50) in experiment [1] came to 25.3 ± 1.34 µM; in experiment [2], 24.3 ± 3.88 µM; in experiment [3], 29 ± 2.38 µM.
Take `N=c1c2c(nc(-c3ccccc3)n1N)OC1=C(C(=O)CCC1)C2c1cccs1` (centres unmarked) [Compound 19, 3-Amino-4-imino-2-phenyl-5-(thiophen-2-yl)-3,4,5,7,8,9-hexahydro-6H-chromeno[2,3-d]pyrimidin-6-one]: the IC50 in experiment [1] turned out to be 13.3 ± 1.96 µM; in experiment [2] it was 14.3 ± 1.96 µM; in experiment [4] it was 60.5 ± 1.94 µM; in experiment [3] it was 15.2 ± 1.65 µM.
The matching figures for `COc1cccc2c1C(=O)c1c(O)c3c(c(O)c1C2=O)C[C@@](O)(C(=O)CO)C[C@@H]3O[C@H]1C[C@H](N)[C@H](O)[C@H](C)O1` [doxorubicin, reference compound]: 2.71 ± 0.12 µM, 2.22 ± 0.22 µM, 87.3 ± 1.47 µM and 1.68 ± 0.11 µM.
